Test results from publication PMC7069944, “Amino acid levels determine metabolism and CYP450 function of hepatocytes and hepatoma cell lines” (Nature Communications, 2020).
Where “and” joins values, the source holds several entries; their conditions need not be identical. Equal values may be shown once.

Assays:
HC6X = assay: Repeated-exposure DILI training compounds, resazurin conversion, HC6X
Outline: (§1)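 PSC-derived cells differentiated in 384-well format, plus HepG2 seeded at 40,000 cells/well, received drugs after 8 h of attachment; untreated wells served as negative controls. Viability was measured by resazurin conversion and related to therapeutic Cmax values.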

HepG2 = assay: Repeated-exposure DILI training compounds, resazurin conversion, HepG2
Outline: as §1

HLC = assay: Repeated-exposure DILI training compounds, resazurin conversion, HLC
Outline: as §1

HC3X = assay: Repeated-exposure DILI training compounds, resazurin conversion, HC3X; details: for Resazurin conversion, repeated exposure (Supplementary Figure 7D): HC3X AAGLY D40
Outline: as §1

Cc1ccc(C(=O)c2cc(O)c(O)c([N+](=O)[O-])c2)cc1 [tolcapone]
Resazurin conversion, repeated exposure (Supplementary Figure 7D) (HC6X; HC6X AAGLY D40, 10 uM): 103.7 and 134.6 and 82 and 87 and 83.1 and 109.6
Resazurin conversion, repeated exposure (Supplementary Figure 7D) (HC6X; HC6X AAGLY D40, 30 uM): 98.2 and 113.2 and 82.9 and 88.4 and 81.1 and 97.8
Resazurin conversion, repeated exposure (Supplementary Figure 7D) (HC6X; HC6X AAGLY D40, 100 uM): 47.9 and 57 and 49.7 and 51.8 and 54.9 and 72.8
Resazurin conversion, repeated exposure (Supplementary Figure 7D) (HC6X; HC6X AAGLY D40, 300 uM): 39.5 and 40.5 and 38.8 and 59.9 and 40.3 and 47.8
Resazurin conversion, repeated exposure (Supplementary Figure 7D) (HC6X; HC6X AAGLY D40, 500 uM): 34.3 and 39.2 and 30.7 and 33.5 and 40.3 and 34.2
Resazurin conversion, repeated exposure (Supplementary Figure 7D) (HC6X; HC6X AAGLY D40, 1000 uM): 31.1 and 26.7 and 26.3 and 27.6 and 26.5
Resazurin conversion, repeated exposure (Supplementary Figure 7D) (HC6X; HC6X AAGLY D40, 2000 uM): 22.1 and 28.3 and 22.3 and 22.5 and 23 and 22.4
Resazurin conversion, repeated exposure (Supplementary Figure 7D) (HC6X; HC6X AAGLY D40, 4000 uM): 17.8 and 17.3 and 16.6 and 16.3 and 16.4 and 16.8
Resazurin conversion, repeated exposure (Supplementary Figure 7D) (HC6X; HC6X AAGLY D40 Remove dox, 30 uM): 108.6 and 121.2 and 103 and 112.9 and 119.8 and 93.5
Resazurin conversion, repeated exposure (Supplementary Figure 7D) (HC6X; HC6X AAGLY D40 Remove dox, 50 uM): 77 and 153.8 and 144.7 and 105.2 and 81.9 and 88.4
Resazurin conversion, repeated exposure (Supplementary Figure 7D) (HC6X; HC6X AAGLY D40 Remove dox, 1000 uM): 78.8 and 118 and 78.9 and 118.9 and 81.8 and 105.5
Resazurin conversion, repeated exposure (Supplementary Figure 7D) (HepG2; HepG2 AAGLY D30, 10 uM): 106.6 and 108.2 and 105.6 and 120.1 and 84.5 and 128.6
Resazurin conversion, repeated exposure (Supplementary Figure 7D) (HepG2; HepG2 AAGLY D30, 30 uM): 144.6 and 128.4 and 104.2 and 136.2 and 93.4 and 133.6
Resazurin conversion, repeated exposure (Supplementary Figure 7D) (HepG2; HepG2 AAGLY D30, 50 uM): 126.9 and 134.9 and 97.9 and 148.8 and 105 and 143.9
Resazurin conversion, repeated exposure (Supplementary Figure 7D) (HepG2; HepG2 AAGLY D30, 300 uM): 44.5 and 61.6 and 62 and 66.8 and 60.8 and 73.6
Resazurin conversion, repeated exposure (Supplementary Figure 7D) (HepG2; HepG2 AAGLY D30, 500 uM): 48.7 and 42.4 and 39.6 and 41.5 and 43.3 and 45.5
Resazurin conversion, repeated exposure (Supplementary Figure 7D) (HepG2; HepG2 AAGLY D30, 1000 uM): 27.5 and 27.3 and 26.8 and 27.1 and 27.8
Resazurin conversion, repeated exposure (Supplementary Figure 7D) (HepG2; HepG2 AAGLY D30, 2000 uM): 22.7 and 22.5 and 22.2 and 22.1 and 22.4
Resazurin conversion, repeated exposure (Supplementary Figure 7D) (HepG2; HepG2 AAGLY D30, 4000 uM): 15.8 and 14.5 and 14.4 and 13.5 and 14.3
Resazurin conversion, repeated exposure (Supplementary Figure 7D) (HepG2; HepG2 CTL D7, 10 uM): 87 and 84.9 and 85.9 and 110.7 and 87.4 and 87.2
Resazurin conversion, repeated exposure (Supplementary Figure 7D) (HepG2; HepG2 CTL D7, 30 uM): 113.4 and 88.9 and 98.2 and 86.8 and 100.5 and 86.2
Resazurin conversion, repeated exposure (Supplementary Figure 7D) (HepG2; HepG2 CTL D7, 300 uM): 8.3 and 8 and 7.5 and 8.8 and 8.1
Resazurin conversion, repeated exposure (Supplementary Figure 7D) (HepG2; HepG2 CTL D7, 500 uM): 7.3 and 6.8 and 6.5 and 6.6 and 6.7
Resazurin conversion, repeated exposure (Supplementary Figure 7D) (HepG2; HepG2 CTL D7, 1000 uM): 6.4 and 5.9 and 5.8 and 5.6
Resazurin conversion, repeated exposure (Supplementary Figure 7D) (HepG2; HepG2 CTL D7, 2000 uM): 4.8 and 4.4 and 4
Resazurin conversion, repeated exposure (Supplementary Figure 7D) (HepG2; HepG2 CTL D7, 4000 uM): 2.3 and 2.5 and 2.2 and 2.1 and 2 and 2.6
Resazurin conversion, repeated exposure (Supplementary Figure 7D) (HLC; HLC AAGLY D40, 10 uM): 89.6 and 98.4 and 93.9 and 112.4 and 126.3 and 99.4
Resazurin conversion, repeated exposure (Supplementary Figure 7D) (HLC; HLC AAGLY D40, 100 uM): 143.7 and 88 and 126.1 and 79.6 and 153.9 and 130.7
Resazurin conversion, repeated exposure (Supplementary Figure 7D) (HLC; HLC AAGLY D40, 500 uM): 86.2 and 108.3 and 80.7 and 126.4 and 91.4 and 111.1
Resazurin conversion, repeated exposure (Supplementary Figure 7D) (HLC; HLC AAGLY D40, 1000 uM): 80.1 and 96.8 and 72.2 and 70.6 and 94.2 and 112.4
Resazurin conversion, repeated exposure (Supplementary Figure 7D) (HLC; HLC LDM D40, 10 uM): 110.5 and 107.3 and 79 and 94.2 and 118.4 and 85.4
Resazurin conversion, repeated exposure (Supplementary Figure 7D) (HLC; HLC LDM D40, 50 uM): 117.3 and 84.9 and 88.5 and 107.2 and 94.9 and 106
Resazurin conversion, repeated exposure (Supplementary Figure 7D) (HLC; HLC LDM D40, 100 uM): 136.2 and 145.5 and 129 and 115.8 and 107.1 and 144.8
Resazurin conversion, repeated exposure (Supplementary Figure 7D) (HLC; HLC LDM D40, 500 uM): 60.4 and 57.9 and 62.5 and 68.7 and 54 and 73.8
Resazurin conversion, repeated exposure (Supplementary Figure 7D) (HLC; HLC LDM D40, 4000 uM): 25.6 and 16.8 and 16.1 and 16 and 13.5 and 19.7
Resazurin conversion, repeated exposure (Supplementary Figure 7D) (HC3X; 10 uM): 139.4 and 142.8 and 150.5 and 156.1 and 95.1 and 108.2
Resazurin conversion, repeated exposure (Supplementary Figure 7D) (HC3X; 30 uM): 50.8 and 58.9 and 61.5 and 64.6 and 88.9 and 76.4
Resazurin conversion, repeated exposure (Supplementary Figure 7D) (HC3X; 300 uM): 8.4 and 7.7 and 8 and 9.1 and 9.2
Resazurin conversion, repeated exposure (Supplementary Figure 7D) (HC3X; 500 uM): 11.6 and 15.4 and 8.7 and 13.6 and 11.8 and 12.2
Resazurin conversion, repeated exposure (Supplementary Figure 7D) (HC3X; 1000 uM): 6.7 and 6.6 and 6.4 and 6.5 and 7.5 and 9.6
Resazurin conversion, repeated exposure (Supplementary Figure 7D) (HC3X; 2000 uM): 4.2 and 4.1 and 4.6
Resazurin conversion, repeated exposure (Supplementary Figure 7D) (HC3X; 4000 uM): 3.1 and 3.3 and 3 and 3.2 and 3.4
IC50/Cmax (HC3X; human): 0.83
